Experimental findings from US10004792B2, “Peptides and combination of peptides for use in immunotherapy against various cancers” (immatics biotechnologies GmbH, priority 2015, dated 2018) are described below.

Test [1] has as its target HLA-A*02 (Homo sapiens, UniProt P04439, D140Y/D185E/D98H/E176V/E277Q/G131W/G231S/I119V/I121R/I166T/I218V/L300P/N151K/N90K/P208A/P217A/Q86G/Q94H/R138H/R169H). Put plainly: MHC binding assay (UV-ligand exchange, beta2m ELISA), HLA-A*02. As to conditions: peptide exchange yield, binding to HLA-A*02, UV-ligand exchange, β2m ELISA. An excerpt:
(§1) Candidate peptides for T cell based therapies according to the present invention were further tested for their MHC binding capacity (affinity). The individual peptide-MHC complexes were produced by UV-ligand exchange, where a UV-sensitive peptide is cleaved upon UV-irradiation, and exchanged with the peptide of interest as analyzed. Only peptide candidates that can effectively bind and stabilize the peptide-receptive MHC molecules prevent dissociation of the MHC complexes. To determine the yield of the exchange reaction, an ELISA was performed based on the detection of the light chain (β2m) of stabilized MHC complexes. The assay was performed as generally described in Rodenko et al. (Rodenko et al., 2006).
(§2) 96 well MAXISorp plates (NUNC) were coated over night with 2 ug/ml streptavidin in PBS at room temperature, washed 4× and blocked for 1 h at 37° C. in 2% BSA containing blocking buffer. Refolded HLA-A*02:01/MLA-001 monomers served as standards, covering the range of 15-500 ng/ml. Peptide-MHC monomers of the UV-exchange reaction were diluted 100 fold in blocking buffer. Samples were incubated for 1h at 37° C., washed four times, incubated with 2 ug/ml HRP conjugated anti-62m for 1 h at 37° C., washed again and detected with TMB solution that is stopped with […]. Absorption was measured at 450 nm. Candidate peptides that show a high exchange yield (preferably higher than 50%, most preferred higher than 75%) are generally preferred for a generation and production of antibodies or fragments thereof, and/or T cell receptors or fragments thereof, as they show sufficient avidity to the MHC molecules and prevent dissociation of the MHC complexes.

The test system of test [2] is HLA-A*24. Kind of test: MHC binding assay (UV-ligand exchange, beta2m ELISA), HLA-A*24. On the set-up: species or system human. Particulars: peptide exchange yield, binding to HLA-A*24, UV-ligand exchange, β2m ELISA.
Excerpt: as §1, §2

For test [3], the system named is CD8+ T cells. Kind of test: In vitro immunogenicity: T-cell priming with aAPCs loaded with peptide/MHC and anti-CD28, multimer staining. The class given is cell-based, human. As to conditions: for Wells positive [%]: in vitro immunogenicity of HLA class I peptides, peptide-specific multimer staining after aAPC priming of CD8+ T cells; for Wells (in vitro immunogenicity): healthy donor CD8+ T cells, three stimulation cycles, multimer readout. An excerpt: In order to obtain information regarding the immunogenicity of the TUMAPs of the present invention, the inventors performed investigations using an in vitro T-cell priming assay based on repeated stimulations of CD8+ T cells with artificial antigen presenting cells (aAPCs) loaded with peptide/MHC complexes and anti-CD28 antibody.
In order to perform in vitro stimulations by artificial antigen presenting cells loaded with peptide-MHC complex (pMHC) and anti-CD28 antibody, the inventors first isolated CD8+ T cells from fresh HLA-A*02 leukapheresis products via positive selection using CD8 microbeads (Miltenyi Biotec, Bergisch-Gladbach, Germany) of healthy donors obtained from the University clinics Mannheim, Germany, after informed consent.
PBMCs and isolated CD8+ lymphocytes were incubated in T-cell medium (TCM) until use consisting of RPMI-Glutamax (Invitrogen, Karlsruhe, Germany) supplemented with 10% heat inactivated human AB serum (PAN-Biotech, Aidenbach, Germany), 100 U/ml Penicillin/100 μg/ml Streptomycin (Cambrex, Cologne, Germany), 1 mM sodium pyruvate (CC Pro, Oberdorla, Germany), 20 µg/ml Gentamycin (Cambrex). 2.5 ng/ml IL7 (PromoCell, Heidelberg, Germany) and 10 U/ml IL-2 (Novartis Pharma, Nurnberg, Germany) were also added to the TCM at this step.
Generation of pMHC/anti-CD28 coated beads, T-cell stimulations and readout was performed in a highly defined in vitro system using four different pMHC molecules per stimulation condition and 8 different pMHC molecules per readout condition.
The purified co-stimulatory mouse IgG2a anti human CD28 Ab 9.3 (Jung et al., 1987) was chemically biotinylated using Sulfo-N-hydroxysuccinimidobiotin as recommended by the manufacturer (Perbio, Bonn, Germany). Beads used were 5.6 μm diameter streptavidin coated polystyrene particles (Bangs Laboratories, Illinois, USA).
pMHC used for positive and negative control stimulations were A*0201/MLA-001 (peptide […] (SEQ ID NO. 303) from modified Melan-A/MART-1) and A*0201/DDX5-001 ([…] from DDX5, SEQ ID NO. 304), respectively.
800.000 beads/200 μl were coated in 96-well plates in the presence of 4×12.5 ng different biotin-pMHC, washed and 600 ng biotin anti-CD28 were added subsequently in a volume of 200 μl. Stimulations were initiated in 96-well plates by co-incubating 1×10^6 CD8+ T cells with 2×10^5 washed coated beads in 200 μI TCM supplemented with 5 ng/ml IL-12 (PromoCell) for 3 days at 37° C. Half of the medium was then exchanged by fresh TCM supplemented with 80 U/ml IL-2 and incubating was continued for 4 days at 37° C. This stimulation cycle was performed for a total of three times. For the pMHC multimer readout using 8 different pMHC molecules per condition, a two-dimensional combinatorial coding approach was used as previously described (Andersen et al., 2012) with minor modifications encompassing coupling to 5 different fluorochromes. Finally, multimeric analyses were performed by staining the cells with Live/dead near IR dye (Invitrogen, Karlsruhe, Germany), CD8-FITC antibody clone SK1 (BD, Heidelberg, Germany) and fluorescent pMHC multimers. For analysis, a BD LSRII SORP cytometer equipped with appropriate lasers and filters was used. Peptide specific cells were calculated as percentage of total CD8+ cells. Evaluation of multimeric analysis was done using the FlowJo software (Tree Star, Oreg., USA). In vitro priming of specific multimer+CD8+ lymphocytes was detected by comparing to negative control stimulations.

On to “153 (FISERVEVV; listed as Homo sapiens) [compound 153]”, for which, in test [1], the Peptide exchange entry is on record as “++++ (>=75% = ++++)”.

For “100 (ALLGMIIVGV; listed as Homo sapiens) [compound 100]”, the Peptide exchange entry in test [1] is given as “+ (<20% = +)”.

As to “42 (LLDSVSRL; listed as Homo sapiens) [compound 42]”, the Peptide exchange result in test [1] is “+ (<20% = +)”.

As for “1 (LLYPEPWSV; listed as Homo sapiens) [compound 1]”, the Peptide exchange result in test [1] is given as “++++ (>=75% = ++++)”.

With “126 (QMFQYFITV; listed as Homo sapiens) [compound 126]”, in test [1], the Peptide exchange result is listed as “++++ (>=75% = ++++)”.

In the case of “120 (VTPVTVSAV; listed as Homo sapiens) [compound 120]”, in test [1], the Peptide exchange result is listed as “+ (<20% = +)”.

For “245 (SLLDLPLSL; listed as Homo sapiens) [compound 245]”, the Peptide exchange entry in test [1] was “++++ (>=75% = ++++)”.

Regarding “82 (FIFDEAEKL; listed as Homo sapiens) [compound 82]”, the Peptide exchange result in test [1] is “+ (<20% = +)”.

Consider “167 (NYINRILKL; listed as Homo sapiens) [compound 167]”, for which the Peptide exchange result in test [2] is “++++ (>=75% = ++++)”. Moreover, the “Wells positive [%]” value in test [3] is on record as “+ (<20% = +)”.

Regarding “159 (LYNKGFIYL; listed as Homo sapiens) [compound 159]”, in test [2], the Peptide exchange entry is reported as “++++ (>=75% = ++++)”. In addition, in test [3], the “Wells positive [%]” value is recorded as “++++ (>=70% = ++++)”.

As to “204 (TYELRYFQI; listed as Homo sapiens) [compound 204]”, in test [2], the Peptide exchange result was “++++ (>=75% = ++++)”. Moreover, in test [3], the “Wells positive [%]” value is “+ (<20% = +)”.

Take “3 (KLEENGDLYL; listed as Homo sapiens) [compound 3]”: in test [1], the Peptide exchange entry was “++++ (>=75% = ++++)”.

For “112 (SLGKFTFDV; listed as Homo sapiens) [compound 112]”, in test [1], the Peptide exchange entry was “++++ (>=75% = ++++)”.

Regarding “229 (AILAHLNTV; listed as Homo sapiens) [compound 229]”, in test [1], the Peptide exchange result was “++++ (>=75% = ++++)”.

In the case of “16 (YTLDIPVLFGV; listed as Homo sapiens) [compound 16]”, the Peptide exchange entry in test [1] is given as “++++ (>=75% = ++++)”.

As for “163 (DYLKGLASF; listed as Homo sapiens) [compound 163]”, the Peptide exchange result in test [2] is recorded as “++++ (>=75% = ++++)”. Further, in test [3], the “Wells positive [%]” value is on record as “+ (<20% = +)”.

Regarding “14 (ILAKDLFEI; listed as Homo sapiens) [compound 14]”, the Peptide exchange result in test [1] is “++++ (>=75% = ++++)”.

For “207 (AYVVFVSTL; listed as Homo sapiens) [compound 207]”, the “Wells positive [%]” value in test [3] is recorded as “+ (<20% = +)”.

Take “293 (FLVDGSWSI; listed as Homo sapiens) [compound 293]”: in test [3], the “Wells (in vitro immunogenicity)” value is “+ (<20% = +)”.

Turning to “92 (GLLFSLRSV; listed as Homo sapiens) [compound 92]”, in test [1], the Peptide exchange result is “++++ (>=75% = ++++)”.

For the substance “290 (KIVDFSYSV; listed as Homo sapiens) [compound 290]”, in test [3], the “Wells (in vitro immunogenicity)” value is “++ (20%-49% = ++)”.

Regarding “34 (FLLATEVVTV; listed as Homo sapiens) [compound 34]”, the Peptide exchange entry in test [1] is listed as “++++ (>=75% = ++++)”.

For the substance “147 (YLMDDTVEI; listed as Homo sapiens) [compound 147]”, in test [1], the Peptide exchange result was “++++ (>=75% = ++++)”.

Turning to “133 (ALLPRLHQL; listed as Homo sapiens) [compound 133]”, the Peptide exchange result in test [1] was “++++ (>=75% = ++++)”.

For “248 (YLDRFLAGV; listed as Homo sapiens) [compound 248]”, the Peptide exchange entry in test [1] is recorded as “++++ (>=75% = ++++)”.

On to “165 (DYTTWTALL; listed as Homo sapiens) [compound 165]”, for which, in test [2], the Peptide exchange result was “++++ (>=75% = ++++)”. The “Wells positive [%]” value in test [3] is “+ (<20% = +)”.

“285 (HYPPVQVLF; listed as Homo sapiens) [compound 285]”: the “Wells positive [%]” value in test [3] was “+ (<20% = +)”.

As for “90 (FLQDLEQRL; listed as Homo sapiens) [compound 90]”, in test [3], the “Wells positive [%]” value is on record as “+ (<20% = +)”.

Turning to “125 (SLADYEHFV; listed as Homo sapiens) [compound 125]”, in test [1], the Peptide exchange result is “++++ (>=75% = ++++)”.

Regarding “149 (ILNTHITEL; listed as Homo sapiens) [compound 149]”, the “Wells positive [%]” value in test [3] is given as “+ (<20% = +)”.

As for “158 (HYSQELSLLYL; listed as Homo sapiens) [compound 158]”, the Peptide exchange result in test [2] is “++++ (>=75% = ++++)”. In addition, the “Wells positive [%]” value in test [3] was “+ (<20% = +)”.

As to “26 (ALQEELTEL; listed as Homo sapiens) [compound 26]”, in test [3], the “Wells positive [%]” value is “+ (<20% = +)”.

“257 (GLYTDPCGV; listed as Homo sapiens) [compound 257]”: the Peptide exchange entry in test [1] is “++++ (>=75% = ++++)”.

Take “258 (LLSERFINV; listed as Homo sapiens) [compound 258]”: in test [1], the Peptide exchange entry is “++++ (>=75% = ++++)”.

For the substance “297 (PFLQASPHF; listed as Homo sapiens) [compound 297]”, the “Wells (in vitro immunogenicity)” value in test [3] is recorded as “++ (20%-49% = ++)”.

Take “35 (FLLPFSTVYL; listed as Homo sapiens) [compound 35]”: in test [3], the “Wells positive [%]” value is reported as “+ (<20% = +)”.

With “51 (LLFSRLCGA; listed as Homo sapiens) [compound 51]”, the Peptide exchange result in test [1] is on record as “++++ (>=75% = ++++)”.

Turning to “95 (GLLGSLFFL; listed as Homo sapiens) [compound 95]”, the Peptide exchange entry in test [1] is given as “++++ (>=75% = ++++)”.

With “268 (QYLGQIQHI; listed as Homo sapiens) [compound 268]”, the “Wells positive [%]” value in test [3] is recorded as “+ (<20% = +)”.

For “129 (RLQDILWFL; listed as Homo sapiens) [compound 129]”, in test [1], the Peptide exchange entry was “++++ (>=75% = ++++)”.

Turning to “301 (AYKPGALTF; listed as Homo sapiens) [compound 301]”, in test [3], the “Wells (in vitro immunogenicity)” value is “+ (<20% = +)”.

“18 (ILLDLTDNRL; listed as Homo sapiens) [compound 18]”: the “Wells positive [%]” value in test [3] is “+ (<20% = +)”.

As to “141 (FLDKVLVAA; listed as Homo sapiens) [compound 141]”, the “Wells positive [%]” value in test [3] is “+ (<20% = +)”.

Consider “292 (GMMTAILGV; listed as Homo sapiens) [compound 292]”, for which, in test [3], the “Wells (in vitro immunogenicity)” value is reported as “+ (<20% = +)”.
